This passage reports IC50 results from ChEMBL document CHEMBL4699544, “Design and synthesis of Coenzyme A analogues as Aurora kinase A inhibitors: An exploration of the roles of the pyrophosphate and pantetheine moieties” (Bioorg Med Chem, 2020).

Test [1] addresses T1, Aurora kinase A (Homo sapiens, UniProt O14965).
T1 sequence (O14965 whole entry): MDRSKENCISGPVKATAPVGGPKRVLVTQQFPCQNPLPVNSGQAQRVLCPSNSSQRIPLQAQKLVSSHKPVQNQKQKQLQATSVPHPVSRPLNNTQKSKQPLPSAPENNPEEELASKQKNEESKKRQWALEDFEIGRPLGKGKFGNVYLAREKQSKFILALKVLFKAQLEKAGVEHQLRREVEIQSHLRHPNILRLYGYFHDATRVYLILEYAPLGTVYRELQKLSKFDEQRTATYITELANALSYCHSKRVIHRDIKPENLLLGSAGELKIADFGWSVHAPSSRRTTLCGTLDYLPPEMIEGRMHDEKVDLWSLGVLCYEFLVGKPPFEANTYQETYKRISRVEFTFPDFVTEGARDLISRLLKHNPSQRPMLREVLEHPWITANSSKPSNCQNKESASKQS
As to the kind of experiment: Inhibition of recombinant Aurora A (unknown origin) using myelin basic protein as substrate incubated for 30 mins in presence or absence of DTT by [gamma-33P]-ATP based radioactive filter binding assay.

The target in test [2] is T1, Aurora kinase A. Put plainly: Inhibition of recombinant Aurora A (unknown origin) using myelin basic protein as substrate incubated for 30 mins in presence of DTT by [gamma-33P]-ATP based radioactive filter binding assay.
Test [3] has as its target T1, Aurora kinase A. Put plainly: Inhibition of recombinant Aurora A (unknown origin) using myelin basic protein as substrate incubated for 30 mins in presence of DTT by [gamma-33P]-ATP based radioactive filter binding assay.

The structures appear in SMILES notation.

A word on the IC50: it is the concentration that gives 50% inhibition. Consider `CCCNC(=O)CCNC(=O)[C@H](O)C(C)(C)COC(=O)CCCC(=O)OC[C@@H]1O[C@H](n2cnc3c(N)ncnc32)[C@@H](O)[C@H]1O`, for which the IC50 at Aurora kinase A [1] stood at 542 µM.
Same read-out and setting: the value for `CCCNC(=O)CCNC(=O)[C@H](O)C(C)(C)COC(=O)CCC(=O)OC[C@@H]1O[C@H](n2cnc3c(N)ncnc32)[C@@H](O)[C@H]1O` was 497 µM; that for `CNC(=O)[C@H](O)C(C)(C)COC(=O)CCC(=O)OC[C@@H]1O[C@H](n2cnc3c(N)ncnc32)[C@@H](O)[C@H]1O` was 1300 µM; that for `CC(C)(COP(=O)(O)OP(=O)(O)OC[C@@H]1O[C@H](n2cnc3c(N)ncnc32)[C@@H](O)[C@H]1O)[C@H](O)C(=O)NCCC(=O)NCCS` was 17 µM.
Still for that read-out and setting: the value for `CCNC(=O)CCNC(=O)[C@@H](O)C(C)(C)COP(=O)(O)OP(=O)(O)OC[C@@H]1O[C@H](n2cnc3c(N)ncnc32)[C@@H](O)[C@H]1OP(=O)(O)O` was 160 µM.
Same read-out and setting: next, `Nc1ncnc2c1ncn2[C@H]1O[C@@H](CNC(=O)CC(=O)O)[C@H](O)[C@@H]1O`: 910 µM.
On to `CNC(=O)CCNC(=O)[C@H](O)C(C)(C)COC(=O)CCC(=O)OC[C@@H]1O[C@H](n2cnc3c(N)ncnc32)[C@@H](O)[C@H]1O`, for which the IC50 at Aurora kinase A [1] is 1400 µM.
Same read-out and setting: the value for `CCCNC(=O)CCNC(=O)[C@H](O)C(C)(C)COC(=O)CC(=O)OC[C@@H]1O[C@H](n2cnc3c(N)ncnc32)[C@@H](O)[C@H]1O` was 1300 µM; that for `CC(C)(COP(=O)(O)OP(=O)(O)OC[C@@H]1O[C@H](n2cnc3c(N)ncnc32)[C@@H](O)[C@H]1OP(=O)(O)O)[C@H](O)C(=O)NCCC(=O)NCCS` was 5 µM.
For `CC(C)(COC(=O)CCC(=O)OC[C@@H]1O[C@H](n2cnc3c(N)ncnc32)[C@@H](O)[C@H]1O)[C@@H](O)C(=O)NCCC(=O)NCCS`, the IC50 on Aurora kinase A [1] came out at 83 µM; on Aurora kinase A [2], 117 µM; on Aurora kinase A [3], 117 µM.
On to `CC(C)(C)COC(=O)CCC(=O)OC[C@@H]1O[C@H](n2cnc3c(N)ncnc32)[C@@H](O)[C@H]1O`, for which the IC50 at Aurora kinase A [1] amounted to 430 µM.
Still for that read-out and setting: the value for `CCCNC(=O)CCNC(=O)[C@H](O)C(C)(C)COC(=O)CC(=O)NC[C@@H]1O[C@H](n2cnc3c(N)ncnc32)[C@@H](O)[C@H]1O` was 1100 µM; that for `Nc1ncnc2c1ncn2[C@H]1O[C@@H](COC(=O)CC(=O)O)[C@H](O)[C@@H]1O` was 420 µM.
